# Source: paper PMC3237634 (Bioorganic & medicinal chemistry letters, 2011)
# Like-named read-outs stand apart in the source and are kept apart here.
# Key:
# hPEPT1 [1] = target: T1, hPEPT1 (Homo sapiens, UniProt P46059); assay type: cell-based; details: for affinity for hPEPT1 compared to the lead promoiety H-Phe-Ser-Ala-OH: statistical comparison, N = 3
# T1 sequence (P46059 1-708): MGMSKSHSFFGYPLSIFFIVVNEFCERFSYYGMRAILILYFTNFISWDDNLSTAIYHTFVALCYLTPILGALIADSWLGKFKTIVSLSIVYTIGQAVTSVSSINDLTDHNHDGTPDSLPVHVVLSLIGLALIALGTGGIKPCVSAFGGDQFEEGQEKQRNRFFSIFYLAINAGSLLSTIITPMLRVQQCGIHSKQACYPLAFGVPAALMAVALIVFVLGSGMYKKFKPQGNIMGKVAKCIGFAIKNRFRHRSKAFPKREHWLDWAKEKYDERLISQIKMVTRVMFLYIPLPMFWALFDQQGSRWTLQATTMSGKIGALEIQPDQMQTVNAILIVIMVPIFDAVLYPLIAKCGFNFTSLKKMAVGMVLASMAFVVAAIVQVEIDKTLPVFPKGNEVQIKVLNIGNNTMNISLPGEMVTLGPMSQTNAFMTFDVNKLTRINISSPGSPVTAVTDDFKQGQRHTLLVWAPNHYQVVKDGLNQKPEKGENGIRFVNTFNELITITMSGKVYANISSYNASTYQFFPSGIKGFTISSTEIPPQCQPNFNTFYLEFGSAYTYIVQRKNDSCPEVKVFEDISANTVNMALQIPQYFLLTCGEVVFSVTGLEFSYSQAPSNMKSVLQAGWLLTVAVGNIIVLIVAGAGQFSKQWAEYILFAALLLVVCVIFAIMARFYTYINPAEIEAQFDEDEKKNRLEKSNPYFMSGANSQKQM
# hPEPT1 [2] = target: T1, hPEPT1; details: investigation of 55 tripeptides; cited from earlier work
# hPEPT1 [3] = target: T1, hPEPT1; details: value obtained by refitting data presented in Thorn et al.; cited from earlier work
Compound,affinity for hPEPT1 compared to the lead promoiety H-Phe-Ser-Ala-OH (hPEPT1 [1]),interaction with hPEPT1 in translocation study (hPEPT1 [2]),also measured
"C[C@H](NC(=O)[C@H](COC(=O)c1ccccc1)CC(=O)[C@@H](N)Cc1ccccc1)C(=O)O.O=C(O)C(F)(F)F [Compound 14A, H-Phe-ψ[COCH2]Ser(Bz)-Ala-OH]",did not have significantly different affinities,,
"CCC[C@H](NC(=O)[C@H](COC(=O)c1ccccc1)CC(=O)[C@@H](N)Cc1ccccc1)C(=O)O.O=C(O)C(F)(F)F [Compound 14B, H-Phe-ψ[COCH2]Ser(Bz)-Nva-OH]",did not have significantly different affinities,,
"N[C@@H](Cc1ccccc1)C(=O)C[C@@H](COC(=O)c1ccccc1)C(=O)N[C@H](C(=O)O)C1CCCCC1.O=C(O)C(F)(F)F [Compound 14C, H-Phe-ψ[COCH2]Ser(Bz)-Chg-OH]",significantly higher affinity,,Ki (hPEPT1 [1]): 50 µM
Asp-Ile-Arg,,not recognized by hPEPT1,
H-Phe-Ser-Ala-OH,,,Ki (hPEPT1 [3]): 260 µM
Met-Pro-Pro,,inhibitor,
